We go through 14 compounds from patent publication US20250206738A1, “WRN INHIBITORS” (Nimbus Wadjet, Inc., priority 2023, published 2025).

Read-outs that look alike come from different tables or passages of the source.

The test system of experiment [1] is p21 induction in HCT 116 cells. Kind of experiment: p21 induction in cells (In-Cell Western, p21/GAPDH ratio). To be noted: 24 h compound incubation, read-out: P21_EC50. Format: cell-based. The procedure, abridged: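 HCT 116 cells treated 24 h at 37° C with 11-point, 2-fold dilutions starting typically at 10 μM, in duplicate. Fixed cells immunostained for p21 and GAPDH; 800/700 nm ratio normalised between DMSO and reference WRN inhibitor controls as percent activation. EC50 from non-linear regression.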

Experiment [2] deals with T1, human Werner helicase (WRN, Uniprot Q14191, amino acids 517-1235 with L1074F point mutation; WRN-BV08) (Homo sapiens, UniProt Q14191, L1074F).
T1 construct: Uniprot Q14191, amino acids 517-1235 with L1074F point mutation; 8xHis (C, cleaved yes); TEV cleavage site (ENLYFQG) (C, cleaved yes); made in house; host or cells: Sf9 insect cells (baculovirus, pFastBac)
T1 sequence (Q14191 with tags, fused parts or gaps L1074F): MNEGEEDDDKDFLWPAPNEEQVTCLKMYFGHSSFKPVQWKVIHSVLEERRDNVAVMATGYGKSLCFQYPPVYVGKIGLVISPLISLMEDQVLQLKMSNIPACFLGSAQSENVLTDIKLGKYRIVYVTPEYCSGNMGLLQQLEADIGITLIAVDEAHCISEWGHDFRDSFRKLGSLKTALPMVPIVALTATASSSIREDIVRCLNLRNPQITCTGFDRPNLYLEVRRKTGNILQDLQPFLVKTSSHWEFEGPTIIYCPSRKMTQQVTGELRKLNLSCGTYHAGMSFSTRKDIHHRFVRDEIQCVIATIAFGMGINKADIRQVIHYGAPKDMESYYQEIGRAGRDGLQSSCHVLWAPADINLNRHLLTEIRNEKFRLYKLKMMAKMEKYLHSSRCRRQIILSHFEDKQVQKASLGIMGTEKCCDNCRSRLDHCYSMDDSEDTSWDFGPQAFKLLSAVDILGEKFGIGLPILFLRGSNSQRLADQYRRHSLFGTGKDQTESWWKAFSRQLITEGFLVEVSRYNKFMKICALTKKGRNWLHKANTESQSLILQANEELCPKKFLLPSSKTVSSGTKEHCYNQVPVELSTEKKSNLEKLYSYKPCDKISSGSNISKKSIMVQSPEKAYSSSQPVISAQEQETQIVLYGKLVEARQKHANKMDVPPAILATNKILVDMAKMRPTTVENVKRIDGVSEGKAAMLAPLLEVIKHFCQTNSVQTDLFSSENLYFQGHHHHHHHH
Kind of experiment: WRN (BV08) ADP-Glo assay. Format: biochemical. To be noted: WRN-BV08 (aa 517-1235, L1074F); read-out: ADP-Glo_hWRN_IC50. In outline:
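WRN 517-1235 (L1074F, untagged, Sf9-expressed), 0.15 nM, preincubated with compound 15 min at 25 °C, then 60 min with […] and 0.1 nM DNA duplex in Bicine pH 7.5, 1 mM MgCl2, 1% DMSO. ADP-Glo luminescence; % inhibition vs NSC-617145 control, four-parameter IC50 fit.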

Regarding `CCc1c(N2CCN(C(=O)c3c(OC)ccnc3O)[C@H]3CC[C@@H]32)c(=O)c2nn(C3=CCOCC3)nc2n1CC(=O)NC12CC(C(C)C)(C1)C2` [I-205, 2-(2-(3,6-dihydro-2H-pyran-4-yl)-5-ethyl-6-((1S,6S)-5-(2-hydroxy-4-methoxynicotinoyl)-2,5-diazabicyclo[4.2.0]octan-2-yl)-7-oxo-2,7-dihydro-4H-[1,2,3]triazolo[4,5-b]pyridin-4-yl)-N-(3-isopropylbicyclo[1.1.1]pentan-1-yl)acetamide], the EC50 in experiment [1] (Homo sapiens, HCT-116, 24 h) was more than 5000 nM. In experiment [2], the IC50 lay in the range of 5 to 50 nM.
Taken in the same sequence, the figures for `CCc1c(N2CCN(C(=O)c3ncnc(C)c3O)CC2)c(=O)n2nc(-c3ccnc(OC)c3)nc2n1CC(=O)NC12CC(C(F)(F)F)(C1)C2` [I-4, 2-(5-ethyl-6-(4-(5-hydroxy-6-methylpyrimidine-4-carbonyl)piperazin-1-yl)-2-(2-methoxypyridin-4-yl)-7-oxo-[1,2,4]triazolo[1,5-a]pyrimidin-4(7H)-yl)-N-(3-(trifluoromethyl)bicyclo[1.1.1]pentan-1-yl)acetamide] were 2000 to 5000 nM and 5 to 50 nM.
The like results for `CCc1c(N2CCN(C(=O)c3c(OC)ncc(C)c3O)CC2)c(=O)c2nc(N(C)C)cnc2n1CC(=O)NC12CC(C(F)(F)F)(C1)C2` [I-240, 2-(2-(dimethylamino)-6-ethyl-7-(4-(4-hydroxy-2-methoxy-5-methylnicotinoyl)piperazin-1-yl)-8-oxopyrido[2,3-b]pyrazin-5(8H)-yl)-N-(3-(trifluoromethyl)bicyclo[1.1.1]pentan-1-yl)acetamide] were, in that order, more than 5000 nM and 50 to 100 nM.
Taken in the same sequence, the figures for `CCc1c([C@@]23CCN(C(=O)c4ncnc(C)c4O)C[C@@H]2C3)c(=O)c2nn(-c3ccnc(OC)c3)nc2n1CC(=O)NC12CC(C(C)C)(C1)C2` (relative stereo) [I-63, rel-2-{5-ethyl-6-[(1R,6S)-3-(5-hydroxy-6-methylpyrimidine-4-carbonyl)-3-azabicyclo[4.1.0]heptan-6-yl]-2-(2-methoxypyridin-4-yl)-7-oxo-2H,4H,7H-[1,2,3]triazolo[4,5-b]pyridin-4-yl}-N-[3-(propan-2-yl)bicyclo[1.1.1]pentan-1-yl]acetamide] were 500 to 2000 nM and 5 to 50 nM.
Consider `CCc1c(N2CCN(C(=O)c3ncnc(C)c3O)[C@H]3CC[C@@H]32)c(=O)c2nc(C)c(C)nc2n1CC(=O)NC12CC(C3CC3)(C1)C2` [I-227, N-(3-cyclopropylbicyclo[1.1.1]pentan-1-yl)-2-(6-ethyl-7-((1S,6S)-5-(5-hydroxy-6-methylpyrimidine-4-carbonyl)-2,5-diazabicyclo[4.2.0]octan-2-yl)-2,3-dimethyl-8-oxopyrido[2,3-b]pyrazin-5(8H)-yl)acetamide], for which the EC50 in experiment [1] (Homo sapiens, HCT-116, 24 h) lay in the range of 500 to 2000 nM. In addition, in experiment [2], the IC50 was in the range of 5 to 50 nM.
Take `CCc1c(N2CCN(C(=O)c3ncnc(C)c3O)[C@H]3CC[C@@H]32)c(=O)c2nn(C3=CCOC(C)C3)nc2n1CC(=O)NC12CC(C3CC3)(C1)C2` (single isomer, unassigned) [I-170]: the EC50 in experiment [1] was not above 500 nM. The IC50 in experiment [2] lay within 5 to 50 nM.
Turning to `CCc1c(N2CCN(C(=O)c3ncnc(C)c3O)[C@H]3CC[C@@H]32)c(=O)n2c(=O)n(-c3ccnc(OC)c3)nc2n1CC(=O)NC12CC(C3CC3)(C1)C2` [I-209, N-(3-cyclopropylbicyclo[1.1.1]pentan-1-yl)-2-(7-ethyl-6-((1S,6S)-5-(5-hydroxy-6-methylpyrimidine-4-carbonyl)-2,5-diazabicyclo[4.2.0]octan-2-yl)-2-(2-methoxypyridin-4-yl)-3,5-dioxo-2,3-dihydro-[1,2,4]triazolo[4,3-a]pyrimidin-8(5H)-yl)acetamide], the EC50 in experiment [1] (Homo sapiens, HCT-116, 24 h) was not above 500 nM. Moreover, in experiment [2], the IC50 is 5 to 50 nM.
The like results for `CCc1c(N2CCN(C(=O)c3cnn(C)c3)CC2)c(=O)n2nc(C3=CCOCC3)nc2n1CC(=O)NC1Cc2ccc(F)cc2C1` (stereo not shown) [I-248, 2-(2-(3,6-dihydro-2H-pyran-4-yl)-5-ethyl-6-(4-(1-methyl-1H-pyrazole-4-carbonyl)piperazin-1-yl)-7-oxo-[1,2,4]triazolo[1,5-a]pyrimidin-4(7H)-yl)-N-(5-fluoro-2,3-dihydro-1H-inden-2-yl)acetamide] were, in that order, more than 5000 nM and 100 to 500 nM.
The like results for `CCc1c(N2CCN(C(=O)c3c(O)ccc4ncoc34)CC2)c(=O)n2nc(N(C)C)nc2n1CC(=O)NC12CC(C3CCC3)(C1)C2` [I-203, N-(3-cyclobutylbicyclo[1.1.1]pentan-1-yl)-2-(2-(dimethylamino)-5-ethyl-6-(4-(6-hydroxybenzo[d]oxazole-7-carbonyl)piperazin-1-yl)-7-oxo-[1,2,4]triazolo[1,5-a]pyrimidin-4(7H)-yl)acetamide] were, in that order, not above 500 nM and 5 to 50 nM.
The like results for `CCc1c(N2CCN(C(=O)c3c(O)ccc4ncoc34)CC2)c(=O)n2nc(-c3ccnc(OC)c3)nc2n1CC(=O)NC12CC(C3CC3)(C1)C2` [I-36, N-(3-cyclopropylbicyclo[1.1.1]pentan-1-yl)-2-(5-ethyl-6-(4-(6-hydroxybenzo[d]oxazole-7-carbonyl)piperazin-1-yl)-2-(2-methoxypyridin-4-yl)-7-oxo-[1,2,4]triazolo[1,5-a]pyrimidin-4(7H)-yl)acetamide] were, in that order, not above 500 nM and not above 5 nM.
As to `CCc1c(N2CCN(C(=O)c3ncnc(C)c3O)[C@H]3CC[C@@H]32)c(=O)c2nc(N(C)C)cnc2n1CC(=O)NC1CC2(CCC2)C1` [I-229, 2-(2-(dimethylamino)-6-ethyl-7-((1S,6S)-5-(5-hydroxy-6-methylpyrimidine-4-carbonyl)-2,5-diazabicyclo[4.2.0]octan-2-yl)-8-oxopyrido[2,3-b]pyrazin-5(8H)-yl)-N-(spiro[3.3]heptan-2-yl)acetamide], in experiment [1] (Homo sapiens, HCT-116, 24 h), the EC50 lay in the range of 2000 to 5000 nM. The IC50 in experiment [2] was 5 to 50 nM.
The like results for `CCc1c(N2CCN(C(=O)c3c(O)ccc4ncoc34)CC2)c(=O)n2nc(N(C)C)nc2n1CC(=O)NC12CC(C(F)(F)F)(C1)C2` [I-22, 2-(2-(dimethylamino)-5-ethyl-6-(4-(6-hydroxybenzo[d]oxazole-7-carbonyl)piperazin-1-yl)-7-oxo-[1,2,4]triazolo[1,5-a]pyrimidin-4(7H)-yl)-N-(3-(trifluoromethyl)bicyclo[1.1.1]pentan-1-yl)acetamide] were, in that order, 2000 to 5000 nM and 5 to 50 nM.
The like results for `CCc1c(N2CCN(C(=O)c3ncnc(C)c3O)[C@H]3CCC[C@H]32)c(=O)c2nn(-c3ccnc(OC)c3)nc2n1CC(=O)NC12CC(C(C)C)(C1)C2` (relative stereo) [I-93, rel-2-{6-[(4aR,7aS)-4-(5-hydroxy-6-methylpyrimidine-4-carbonyl)-octahydro-1H-cyclopenta[b]pyrazin-1-yl]-5-ethyl-2-(2-methoxypyridin-4-yl)-7-oxo-2H,4H,7H-[1,2,3]triazolo[4,5-b]pyridin-4-yl}-N-[3-(propan-2-yl)bicyclo[1.1.1]pentan-1-yl]acetamide] were, in that order, 500 to 2000 nM and 5 to 50 nM.
The like results for `CCc1c(N2CCN(C(=O)c3ncnc(C)c3O)[C@H]3CC[C@@H]32)c(=O)c2nc(N(C)C)cnc2n1CC(=O)NC12CC(C(F)(F)F)(C1)C2` (relative stereo) [I-2, rel-2-(2-(dimethylamino)-6-ethyl-7-((1S,6S)-5-(5-hydroxy-6-methylpyrimidine-4-carbonyl)-2,5-diazabicyclo[4.2.0]octan-2-yl)-8-oxopyrido[2,3-b]pyrazin-5(8H)-yl)-N-(3-(trifluoromethyl)bicyclo[1.1.1]pentan-1-yl)acetamide] were, in that order, more than 5000 nM and 100 to 500 nM.
